Assay results as given in patent publication US20050176826A1, “Use of asc-1 inhibitors to treat neurological and psychiatric disorders” (H. Lundbeck A/S, priority 2002, published 2005).

Legend:
[1] = target: T1, D-serine-sensitive Na+-independent transporter in rat cortical membranes (Rattus norvegicus, UniProt P63116); assay: Na+-independent [3H]D-serine uptake into rat cortical membranes (synaptosomes); assay type: biochemical
T1 construct: from tissue; host or cells: rat cerebral cortex membranes (P2 synaptosomes), male Wistar rats
T1 sequence (P63116 1-530): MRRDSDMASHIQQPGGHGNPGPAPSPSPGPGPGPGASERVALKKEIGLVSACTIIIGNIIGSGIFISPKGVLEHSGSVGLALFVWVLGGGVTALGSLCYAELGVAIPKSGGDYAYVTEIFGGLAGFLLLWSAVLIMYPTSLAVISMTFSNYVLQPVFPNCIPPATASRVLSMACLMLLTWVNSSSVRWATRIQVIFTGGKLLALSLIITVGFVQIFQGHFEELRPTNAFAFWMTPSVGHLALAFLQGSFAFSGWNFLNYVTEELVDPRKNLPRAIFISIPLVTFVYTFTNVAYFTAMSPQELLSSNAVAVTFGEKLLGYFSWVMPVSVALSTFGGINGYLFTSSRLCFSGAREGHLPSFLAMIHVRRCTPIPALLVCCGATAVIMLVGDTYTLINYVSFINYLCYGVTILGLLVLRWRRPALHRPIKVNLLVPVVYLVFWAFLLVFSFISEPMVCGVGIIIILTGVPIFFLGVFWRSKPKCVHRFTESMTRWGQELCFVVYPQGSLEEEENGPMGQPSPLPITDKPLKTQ
T1 sequence (Q794F9 1-527 partner): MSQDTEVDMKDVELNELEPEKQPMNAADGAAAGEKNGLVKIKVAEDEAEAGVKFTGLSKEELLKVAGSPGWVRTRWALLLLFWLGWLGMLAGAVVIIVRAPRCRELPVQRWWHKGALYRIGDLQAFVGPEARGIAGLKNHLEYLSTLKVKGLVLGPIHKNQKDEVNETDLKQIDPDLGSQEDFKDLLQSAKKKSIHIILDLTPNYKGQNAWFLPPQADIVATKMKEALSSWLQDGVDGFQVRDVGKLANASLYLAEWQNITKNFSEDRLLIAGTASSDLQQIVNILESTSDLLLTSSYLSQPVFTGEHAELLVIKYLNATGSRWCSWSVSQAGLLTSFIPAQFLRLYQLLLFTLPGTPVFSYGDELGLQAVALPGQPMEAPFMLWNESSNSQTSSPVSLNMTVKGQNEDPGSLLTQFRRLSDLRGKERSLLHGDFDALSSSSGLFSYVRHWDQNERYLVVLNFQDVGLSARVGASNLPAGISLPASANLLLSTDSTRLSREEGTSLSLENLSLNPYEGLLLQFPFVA
Protocol: (§1) Into cortical membranes: Cortex from male Wistar rats (150-200 g) was homogenized in 0.40 M sucrose and centrifuged at 1000×g for 10 min. […] Test compounds and tissue (1 mg orig. tissue/well) were added to 96 well plates and incubated with [^3H]-D-serine (specific activity=26.8 Ci/mmol, PerkinElmer, Cambridge, U.K.) (100 nM final concentration) for 5 min at 25° C. Samples were filtered on Unifilter GF/B glass fiber (Packard Biosciences, Meriden, Conn., USA) and washed with 3×0.25 mL assay buffer. Measurements of [^3H]-D-serine uptake into whole HEK293 cells expressing human asc-1 were performed in 96 well plates with similar conditions except that the cells were incubated for 15 min with radioligand and washed by dipping twice in cold assay buffer following incubation with radioligand. Accumulated radioactivity was extracted from the cells by adding 200 μL scintillation fluid/well (Ultima Gold, Packard Biosciences) and the plates were counted in a Microplates Scintillation Counter (Packard Biosciences). The D-serine uptake in samples containing test compounds was compared to controls without added compound or controls where transport via the asc-1 was inhibited by addition of e.g. 30 mM L-alanine.

human asc-1 = target: T2, human asc-1 (Homo sapiens, UniProt Q9NS82); assay: [3H]D-serine uptake into HEK293 cells expressing human asc-1; assay type: cell-based
T2 construct: expressed in transfected cells; host or cells: HEK293 (ATCC CRL 1573), transient, vector pCI/neo
T2 sequence (Q9NS82 1-523): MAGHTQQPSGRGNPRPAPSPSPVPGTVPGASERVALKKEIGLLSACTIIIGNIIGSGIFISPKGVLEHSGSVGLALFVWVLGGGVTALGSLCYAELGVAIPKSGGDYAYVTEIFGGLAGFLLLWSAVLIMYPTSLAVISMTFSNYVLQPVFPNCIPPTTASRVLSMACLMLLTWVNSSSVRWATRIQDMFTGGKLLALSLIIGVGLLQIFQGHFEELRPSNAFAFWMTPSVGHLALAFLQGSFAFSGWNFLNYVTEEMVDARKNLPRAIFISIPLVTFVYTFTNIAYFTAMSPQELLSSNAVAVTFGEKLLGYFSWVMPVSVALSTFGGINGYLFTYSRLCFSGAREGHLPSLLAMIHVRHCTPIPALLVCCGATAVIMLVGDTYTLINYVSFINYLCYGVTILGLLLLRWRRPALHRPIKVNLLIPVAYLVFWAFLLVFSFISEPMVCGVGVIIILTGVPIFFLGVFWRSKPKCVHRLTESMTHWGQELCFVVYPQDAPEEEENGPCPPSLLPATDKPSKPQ
Protocol: Uptake was determined 2-4 days after the transfection.
as §1

System A transporters [2] = settings: at 5 mM; cultured rat hepatocytes; cited from earlier work
System A transporters [3] = assay: [3H]AIB transport into cultured rat hepatocytes (Bracy et al.); assay type: cell-based; settings: corresponding to 81% inhibition at 5 mM

Compound: CSCC(N)C(=O)O (stereo in doubt) [(S)-methyl-L-cysteine]
- Ki [1]: 6.6 ± 1.8 µM
- Ki (human asc-1): 62 ± 15 µM
- inhibition of System A transporters ([3H]AIB transport) (System A transporters [2]): 81%
- IC50 (System A transporters [3]): ~1200 µM
